From US20180179198A1, “TRICYCLIC MODULATORS OF TNF SIGNALING” (AbbVie Inc., priority 2015, published 2018)

Target: TNFα trimer (Homo sapiens, UniProt P01375)
Assay: TNFα FP Competitive Binding Assay
Conditions: TNFα FP competitive binding assay; class symbols A/B/C; read-out: TNF IC50
Method: TNFα FP Competitive Binding Assay
• 1. Assay Buffer: Prepare 1× Assay Buffer (Water with 47 mM HEPES, 47 mM NaCl, 0.9 mM EDTA, 0.0071% Triton X-100) by adding 25 mL of 1 M HEPES, 5 mL of 5 M NaCl, 1 mL of 0.5 M EDTA, and 375 μL of a 10% Triton X-100 stock to a fresh 500 mL bottle of water. • 2. Assay Mixture: Prepare fresh Assay Mixture containing 20 nM TNFα trimer (60 nM protein) and 1 nM 2′,7′-difluoro-3′,6′-dihydroxy-N-(2-(2-(2-((4-(isoquinolin-8-yl)-3-(4-(isoquinolin-8-yl)phenethoxy)benzyl)oxy)ethoxy)ethoxy)ethyl)-3-oxo-3H-spiro[isobenzofuran-1,9′-xanthene]-5-carboxamide probe in 1× Assay Buffer.
Compound Plate Preparation
Manual 12-point 1:3 Dilution Plates: (384 well polypropylene plates)
Top concentration of compounds, 10 mM in DMSO, dispensed in rows A-O in columns 1 and 13. Compounds are serially diluted 1:3 with DMSO in columns 2-12 or 14-24 using a 16-channel Matrix pipettor. Plates stored at −20° C.
Discovery Preps 12-point 1:3 Dilution Plates: (384 well assay plates)
Top concentration, 5 mM in DMSO, of compounds placed in rows A-O in columns 1 and 13. Compounds are serially diluted 1:3 with DMSO in columns 2-12 or 14-24. Compound solutions are dispensed into replicate assay plates at 410 nL per well. Plates stored at 4° C.
TNFα FP Competitive Binding Assay Protocol
• 1. Compound plates are warmed to rt. • 2. Fresh Assay Mixture is prepared. • 3. Assay Mixture (20 μL) is dispensed each well of 384 assay plates using a Thermo Multidrop Combi or 16-channel Matrix pipettor. If Manual 12-point 1:3 Dilution Plates are to be tested, Assay Mix is dispensed into empty plates. Discovery Preps 12-point 1:3 Dilution Plates already contain 410 nL compound solution in DMSO. • 4. For Manual 12-point 1:3 Dilution Plates, 0.7 μL is manually transferred using a 16-channel Matrix pipettor to replicate assay plates containing 20 μL Assay Mixture for a final top compound concentration of 338 μM (3.4% DMSO). • 5. For Discovery Preps 12-point 1:3 Dilution Plates, 20 μL Assay Mixture added the 410 nL compound solution already in the plates yields a final top compound concentration of 100 μM (2.0% DMSO). • 6. Background subtraction controls are wells P1-P8 containing only Assay Buffer. The low % inhibition controls are wells P9-P16 containing only Assay Mix. The high % inhibition are wells P17-P24 containing only 1 nM 2′,7′-difluoro-3′,6′-dihydroxy-N-(2-(2-(2-((4-(isoquinolin-8-yl)-3-(4-(isoquinolin-8-yl)phenethoxy)benzyl)oxy)ethoxy)ethoxy)ethyl)-3-oxo-3H-spiro[isobenzofuran-1,9′-xanthene]-5-carboxamide probe in 1× Assay Buffer. • 7. Plates are incubated at […] for 18-24 h in 37° C. incubator (CO2 is off). • 8. Prior to reading the assay, the plates are placed in a dark cabinet to equilibrate at rt for one hour. • 9. Background-subtracted fluorescence polarization (mP) is measured using a PerkinElmer Envision plate reader. • 10. Raw data is entered into Assay Explorer and dose-response curves are generated using a variable slope curve.

Chain of TNFα trimer (P01375 77-233 limits assumed): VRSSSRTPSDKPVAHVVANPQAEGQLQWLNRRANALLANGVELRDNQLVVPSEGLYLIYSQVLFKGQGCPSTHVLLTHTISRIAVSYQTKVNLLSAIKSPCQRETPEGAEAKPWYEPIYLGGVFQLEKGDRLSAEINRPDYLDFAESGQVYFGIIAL

| SMILES | IC50 |
| --- | --- |
| N#C[C@@H]1CC[C@@H](Oc2cc(-c3ccc4nc5n(c4n3)[C@@H](c3ccccc3)CC5)ccn2)C1 [AS.7] | 1 to 10 µM |
| c1ccc([C@H]2CCc3nc4ccc(-c5ccnc(OC6CCCNC6)c5)nc4n32)cc1 (stereo partly shown) [AT.1] | 1 to 10 µM |
| c1ccc([C@H]2CCc3nc4ccc(-c5ccnc(O[C@@H]6CCNC6)c5)nc4n32)cc1 [AT.2] | 1 to 10 µM |
| c1ccc([C@H]2CCc3nc4ccc(-c5ccnc(OC6CCC67CCNC7)c5)nc4n32)cc1 (stereo partly shown) [AT.3] | 1 to 10 µM |
| O=C1NC[C@@H]2CN(c3ncc(-c4ccc5nc6n(c5n4)C4(COC6)COc5ccccc54)cn3)CCN12 (stereo partly shown) [AU.1] | < 1 µM |
| OC1CC(Nc2ncc(-c3ccc4nc5n(c4n3)C3(COC5)COc4ccccc43)cn2)C1 (stereo not shown) [AU.2] | 1 to 10 µM |
| c1ccc2c(c1)OCC21COCc2nc3ccc(-c4cnc(NC5CCOC5)nc4)nc3n21 (stereo not shown) [AU.3] | 1 to 10 µM |
| OC1CCCN(c2ncc(-c3ccc4nc5n(c4n3)C3(COC5)COc4ccccc43)cn2)C1 (stereo not shown) [AU.4] | < 1 µM |
| CN1CCN(c2ncc(-c3ccc4nc5n(c4n3)C3(COC5)COc4ccccc43)cn2)CC1 (stereo not shown) [AU.5] | 1 to 10 µM |
| OCC1CCCN(c2ncc(-c3ccc4nc5n(c4n3)C3(CCc4ccccc43)COC5)cn2)C1 (stereo not shown) [AV.1] | < 1 µM |
| O=C1NC[C@@H]2CN(c3ncc(-c4ccc5nc6n(c5n4)C4(CCc5ccccc54)COC6)cn3)CCN12 (stereo partly shown) [AV.2] | < 1 µM |
| c1ccc2c(c1)CCC21COCc2nc3ccc(-c4cnc(N5CCCOCC5)nc4)nc3n21 (stereo not shown) [AV.3] | < 1 µM |
| OC1CCN(c2ncc(-c3ccc4nc5n(c4n3)C3(CCc4ccccc43)COC5)cn2)CC1(F)F (stereo not shown) [AV.4] | < 1 µM |
| CC(O)C(=O)N1CCN(c2ncc(-c3ccc4nc5n(c4n3)C3(CCc4ccccc43)COC5)cn2)CC1 (stereo not shown) [AV.5] | < 1 µM |
| O=C(CO)N1CCN(c2ncc(-c3ccc4nc5n(c4n3)C3(CCc4ccccc43)COC5)cn2)CC1 (stereo not shown) [AV.6] | < 1 µM |
| OCC1(F)CCN(c2ncc(-c3ccc4nc5n(c4n3)C3(CCc4ccccc43)COC5)cn2)CC1 (stereo not shown) [AV.7] | < 1 µM |
| c1ccc2c(c1)CCC21COCc2nc3ccc(-c4cnc(N5CCOCC5)nc4)nc3n21 (stereo not shown) [AV.8] | < 1 µM |
| OC1CCCN(c2ncc(-c3ccc4nc5n(c4n3)C3(CCc4ccccc43)COC5)cn2)CC1 (stereo not shown) [AV.9] | < 1 µM |
| O=c1cc(-c2ccc3nc4n(c3n2)[C@@H](c2ccccc2)CC4)ccn1CC1CCC(F)(F)CC1 [AW.1] | 1 to 10 µM |
| COCCn1ccc(-c2ccc3nc4n(c3n2)[C@@H](c2ccccc2)CC4)cc1=O [AW.2] | 1 to 10 µM |

| SMILES | IC50 |
| --- | --- |
| O=c1cc(-c2ccc3nc4n(c3n2)[C@@H](c2ccccc2)CC4)ccn1CC1CCOCC1 [AW.3] | 1 to 10 µM |
| O=c1cc(-c2ccc3nc4n(c3n2)[C@@H](c2ccccc2)CC4)ccn1C1CCOCC1 [AW.5] | 10 to 100 µM |
| c1ccc([C@H]2CCc3nc4ccc(-c5cnn(C6CCOCC6)c5)nc4n32)cc1 [AW.6] | 1 to 10 µM |
| O[C@H]1CC[C@H](Oc2cc(-c3ccc4nc5n(c4n3)C3(COC5)COc4ccccc43)ccn2)CC1 (stereo partly shown) [AX.1] | < 1 µM |
| O[C@H]1CC[C@@H](Oc2cc(-c3ccc4nc5n(c4n3)C3(COC5)COc4ccccc43)ccn2)CC1 (stereo partly shown) [AX.2] | 1 to 10 µM |
| OC1CCC(Oc2cc(-c3ccc4nc5n(c4n3)C3(COC5)COc4ccccc43)ccn2)C1 (stereo not shown) [AX.3] | < 1 µM |
| c1nc(N2CCOCC2)ncc1-c1ccc2nc3c(n2n1)C1(CCCCC1)OCC3 [AY.1] | 1 to 10 µM |
| c1ccc2c(c1)OCCC21OCCc2nc3ccc(-c4cnc(N5CCOCC5)nc4)nn3c21 (stereo not shown) [AY.2] | < 1 µM |
| OC1CCN(c2ncc(-c3ccc4nc5n(c4n3)C(c3ccccc3)COC5)cn2)CC1(F)F (stereo not shown) [AZ.1] | < 1 µM |
| OC1CCN(c2ncc(-c3ccc4nc5n(c4n3)C(c3ccccc3)COC5)cn2)CC1 (stereo not shown) [AZ.2] | < 1 µM |
| c1ccc(C2COCc3nc4ccc(-c5cnc(N6CCCOCC6)nc5)nc4n32)cc1 (stereo not shown) [AZ.3] | 1 to 10 µM |
| OCC1CCCN(c2ncc(-c3ccc4nc5n(c4n3)C(c3ccccc3)COC5)cn2)C1 (stereo not shown) [AZ.4] | < 1 µM |
| OCC1(F)CCN(c2ncc(-c3ccc4nc5n(c4n3)C(c3ccccc3)COC5)cn2)CC1 (stereo not shown) [AZ.5] | < 1 µM |
| CC(O)C(=O)N1CCN(c2ncc(-c3ccc4nc5n(c4n3)C(c3ccccc3)COC5)cn2)CC1 (stereo not shown) [AZ.6] | 1 to 10 µM |
| O=C(CO)N1CCN(c2ncc(-c3ccc4nc5n(c4n3)C(c3ccccc3)COC5)cn2)CC1 (stereo not shown) [AZ.7] | < 1 µM |
| COc1ncc(-c2ccc3nc4n(c3n2)C2(CCOc3ccccc32)COC4)cn1 (stereo not shown) [BA.1] | 1 to 10 µM |
| CCOc1ncc(-c2ccc3nc4n(c3n2)C2(CCOc3ccccc32)COC4)cn1 (stereo not shown) [BA.2] | < 1 µM |
| CS(=O)(=O)c1ncc(-c2ccc3nc4n(c3n2)C2(CCOc3ccccc32)COC4)cn1 (stereo not shown) [BA.3] | 1 to 10 µM |
| c1ccc2c(c1)OCCC21COCc2nc3ccc(-c4cnc(N5CCCNCC5)nc4)nc3n21 (stereo not shown) [BA.4] | 1 to 10 µM |
| CC(C)Nc1ncc(-c2ccc3nc4n(c3n2)C2(CCOc3ccccc32)COC4)cn1 (stereo not shown) [BA.5] | 1 to 10 µM |

| SMILES | IC50 |
| --- | --- |
| c1ccc2c(c1)OCCC21COCc2nc3ccc(-c4cnc(N5CCOCC5)nc4)nc3n21 (stereo not shown) [BA.6] | < 1 µM |
| CC(C)(O)c1ncc(-c2ccc3nc4n(c3n2)C2(CCOc3ccccc32)COC4)cn1 (stereo not shown) [BA.7] | 1 to 10 µM |
| c1ccc2c(c1)OCCC21COCc2nc3ccc(-c4ccnc(OC5CCOCC5)c4)nc3n21 (stereo not shown) [BA.8] | < 1 µM |
| O=C1NC[C@@H]2CN(c3ncc(-c4ccc5nc6n(c5n4)C4(CCOc5ccccc54)COC6)cn3)CCN12 (stereo partly shown) [BB.1] | < 1 µM |
| OC1CCN(c2ncc(-c3ccc4nc5n(c4n3)C3(CCOc4ccccc43)COC5)cn2)CC1 (stereo not shown) [BB.2] | < 1 µM |
| OC1CCCN(c2ncc(-c3ccc4nc5n(c4n3)C3(CCOc4ccccc43)COC5)cn2)C1 (stereo not shown) [BB.3] | < 1 µM |
| OC1CN(c2ncc(-c3ccc4nc5n(c4n3)C3(CCOc4ccccc43)COC5)cn2)C1 (stereo not shown) [BB.4] | < 1 µM |
| OC1CCN(c2ncc(-c3ccc4nc5n(c4n3)C3(CCOc4ccccc43)COC5)cn2)C1 (stereo not shown) [BB.5] | < 1 µM |
| OC1CC(Nc2ncc(-c3ccc4nc5n(c4n3)C3(CCOc4ccccc43)COC5)cn2)C1 (stereo not shown) [BB.6] | 1 to 10 µM |
| CC1(O)CN(c2ncc(-c3ccc4nc5n(c4n3)C3(CCOc4ccccc43)COC5)cn2)C1 (stereo not shown) [BB.7] | 1 to 10 µM |
| CN1CCN(c2ncc(-c3ccc4nc5n(c4n3)C3(CCOc4ccccc43)COC5)cn2)CC1 (stereo not shown) [BB.8] | 1 to 10 µM |
| COCCOc1cc(-c2ccc3nc4n(c3n2)[C@@H](c2ccccc2)CC4)ccn1 [BC.1] | 1 to 10 µM |
| CC(C)(O)COc1cc(-c2ccc3nc4n(c3n2)[C@@H](c2ccccc2)CC4)ccn1 [BC.2] | 1 to 10 µM |
| c1ccc(C2C3CC(C3)c3nc4ccc(-c5ccnc(OC6CCOCC6)c5)nc4n32)cc1 (stereo not shown) [BD.1] | 1 to 10 µM |
| c1ccc(C2C3CC(C3)c3nc4ccc(-c5cnc(N6CCOCC6)nc5)nc4n32)cc1 (stereo not shown) [BE.1] | 1 to 10 µM |
| C1=C(c2ccc3nc4n(c3n2)C2(COC4)COc3ccccc32)CNC1 (stereo not shown) [BF.1] | 1 to 10 µM |
| CNCC(=O)N1CC=C(c2ccc3nc4n(c3n2)C2(COC4)COc3ccccc32)CC1 (stereo not shown) [BF.2] | 1 to 10 µM |
| c1ccc2c(c1)OCC21COCc2nc3ccc(-c4ccnc(OC5CCOCC5)c4)nc3n21 (stereo not shown) [BG.1] | 1 to 10 µM |
| COc1ncc(-c2ccc3nc4n(c3n2)C2(COC4)COc3ccccc32)cn1 (stereo not shown) [BG.2] | 1 to 10 µM |

Same assay, conditions: fluorescence polarization competition; 20 nM TNFα trimer, 1 nM OregonGreen488 probe; read-out: TNF IC50 (TNFα FP binding assay IC50)

| SMILES | IC50 |
| --- | --- |
| CC(C)(O)c1ncc(-c2ccc3nc4n(c3c2)C(c2cccc(F)c2)CC4)cn1 (stereo not shown) [B.1] | < 1 µM |
| Cc1ccc(C)c(C2CCc3nc4ccc(-c5cnc(C(C)(C)O)nc5)cc4n32)c1 (stereo not shown) [B.2, 2-(5-(1-(2,5-Dimethylphenyl)-2,3-dihydro-1H-benzo[d]pyrrolo[1,2-a]imidazol-7-yl)pyrimidin-2-yl)propan-2-ol] | < 1 µM |
